This is an account of results in patent publication US20210069135A1, “THERAPEUTIC APPROACHES FOR TREATING EPILEPSY AND RELATED DISORDERS THROUGH REDUCTION OF EPILEPTOGENESIS” (PHARNEXT, priority 2012, published 2021).

Assay [1] relates to PTZ-induced seizures in mice. As to the kind of experiment: Pentylenetetrazol (PTZ)-induced seizure in mice model. It counts as in vivo, CD-1 mice. How it is done: Four to five week old male CD-1 mice of about 20 g (Janvier; Le Genest St Isle—France) were acclimatized to the environment for one week before the experiment.
They were group-housed (5-10 mice per cage) and maintained in a room with controlled temperature (21-22° C.) and a reversed light-dark cycle (12 h/12 h; lights on: 17:30-05:30; lights off: 05:30-17:30) with food and water available ad libitum.
PTZ-induced seizures in mice are an accepted in vivo model for the screening of antiepileptic drugs. PTZ is a blocker of the chloride ionophore complex to the GABAA receptor that has […] effects after repeated or single dose administration and also affects several neurotransmitter systems, such as the GABAergic and glutamatergic systems. Seizures were induced by administration of 100 mg/kg (subcutaneously) of PTZ. Levetiracetam (500 mg/kg), used as an internal positive control, was administered 60 min before the PTZ injection. Drugs of the invention were injected per os 2 h before PTZ administration. Acamprosate calcium (two molecules of acamprosate for a calcium ion) was tested at three different doses.
As already stated, 100 mg/kg PTZ were injected subcutaneously and the animals were then observed for 1 h after injection. The latencies for clonic seizures, tonic seizures, and death were monitored. Clonic seizures consist in rhythmic contractions of forelimbs and/or hindlimbs. Tonic seizures consist in rigid extension of the forelimbs and/or hindlimbs.
Analysis of variance (ANOVA) was performed on the result data. Fisher's Protected Least Significant Difference was used for pairwise comparisons. Statistical difference was assessed by Fisher's exact test. p values≤0.05 were considered significant.

Another assay has as its system neuronal cortical cells. In words: Glutamate toxicity assay on primary cortical neuron cells (neurite network, neurofilament immunostaining). Type of assay: cell-based, rat. Conditions: for protection against glutamate toxicity, drug alone: torasemide or baclofen alone at the same doses as in the combination of FIG. 4 (400 nM, 2 μM), not significant. As for the experimental part: Rat cortical neurons were cultured as described by Singer et al.. Briefly, pregnant female rats of 15 days gestation were killed by cervical dislocation (Rats Wistar) and the fetuses were removed from the uterus. The cortex was removed and placed in ice-cold medium of Leibovitz (L15) containing 2% of penicillin 10,000 U/mL and streptomycin 10 mg/mL and 1% of bovine serum albumin (BSA). Cortices were dissociated by trypsin for 20 min at 37° C. (0.05%). The reaction was stopped by the addition of Dulbecco's modified Eagle's medium (DMEM) containing DNasel grade II and 10% of foetal calf serum (FCS). Cells were then mechanically dissociated by 3 serial passages through a 10 mL pipette and centrifuged at 515×g for 10 min at +4° C. The supernatant was discarded and the pellet of cells was re-suspended in a defined culture medium consisting of Neurobasal supplemented with B27 (2%), L-glutamine (0.2 mM), 2% of PS solution and 10 ng/mL of BDNF. Viable cells were counted in a Neubauer cytometer using the trypan blue exclusion test. The cells were seeded at a density of 30 000 cells/well in 96 well-plates (wells were pre-coated with poly-L-lysine (10 μg/mL)) and were cultured at +37° C. in a humidified air (95%)/CO2 (5%) atmosphere.
After 12 days of neuron culture, drugs of the candidate combinations were solved in culture medium (+0.1% DMSO). Candidate drugs or drug combinations were then pre-incubated with neurons for 1 h before the glutamate injury. Glutamate was added for 20 min, to a final concentration of 40 μM in presence of candidate drugs or drug combinations. At the end of the incubation, medium was changed with medium with candidate combination but without glutamate. The culture was fixed 24 h after glutamate injury. MK801 (Dizocilpinehydrogen maleate, 77086-22-7-20 μM) was used as a positive control.
After permeabilization with saponin (Sigma), cells were blocked for 2 h with PBS containing 10% goat serum, then the cells were incubated with mouse monoclonal primary antibody against Neurofilament antibody (NF, Sigma).
Nuclei of cells were labeled by a fluorescent marker (Hoechst solution, SIGMA), and neurite network quantified. Six wells per condition were used to assess neuronal survival in 3 different cultures.

[2] abbreviates: high dose of acamprosate calcium.
Setting [3] is: low dose of acamprosate calcium.
[4] abbreviates: baclofen 400 nM alone or acamprosate 1.6 nM alone, FIG. 3.
Where [5] appears, read: baclofen 2 μM alone or torasemide 400 nM alone, FIG. 4.
Setting [6] is: cinacalcet 64 μM alone or mexiletine 25.6 μM alone, FIG. 1.
Setting [7] is: levetiracetam 500 mg/kg 60 min before PTZ.
Setting [8] is: sulfisoxazole 6.8 nM alone or torasemide 400 nM alone, FIG. 2.

“Also recorded” adds a separate entry of the source.

As for `CC(=O)NCCCS(=O)(=O)[O-].CC(=O)NCCCS(=O)(=O)[O-].[Ca+2]` [acamprosate calcium], the “latency to clonic seizure (in words)” value in assay [1] (acamprosate calcium 0.032 mg/kg, PTZ 100 mg/kg s.c., not shown) is reported as “increase”; in assay [1] (acamprosate calcium 0.5 mg/kg per os 2 h before PTZ 100 mg/kg s.c., FIG. 6, p<0.05 vs vehicle), “significant increase”; in assay [1] (acamprosate calcium 0.5 mg/kg per os 2 h before PTZ 100 mg/kg s.c., FIG. 6, p<0.05 vs vehicle, listed as Acamprosate calcium) it was “efficient in increasing”. Further, the entries for the “reduction of prevalence of death” value in assay [1] (setting [2]) and in assay [1] (setting [3]) were 38% and 25%, respectively. Further, the “reduction of prevalence of mice with clonic seizure” value was 30% in assay [1] (setting [2]) and 20% in assay [1] (setting [3]). Moreover, the “reduction of prevalence of mice with tonic seizure” value is recorded as 38% in assay [1] (setting [2]) and 25% in assay [1] (setting [3]).
As to `CC(=O)NCCCS(=O)(=O)O` [acamprosate, Acamprosate], the “effect on glutamate intoxication, drug alone” value (“effect” for short) in the assay with neuronal cortical cells (setting [4]) is recorded as “no statistically significant effect”.
In the case of `NCC(CC(=O)O)c1ccc(Cl)cc1` (stereo not shown) [baclofen, Baclofen], the “effect” value is “no statistically significant effect” with neuronal cortical cells (setting [4]) and “no significant results; also recorded: no statistically significant effect” with neuronal cortical cells (setting [5]). For the same compound, the “protection against glutamate toxicity, drug alone” value in the assay on neuronal cortical cells is on record as 13%.
In the case of `C[C@@H](NCCCc1cccc(C(F)(F)F)c1)c1cccc2ccccc12` [cinacalcet, Cinacalcet], the “effect” value with neuronal cortical cells (setting [6]) is listed as “no protection at all; also recorded: no significant effect”.
For `CC[C@@H](C(N)=O)N1CCCC1=O` [levetiracetam], in assay [1] (setting [7]), the “PTZ-induced death (in words)” value was “reversed” and the “PTZ-induced tonic seizure (in words)” value is reported as “reversed”. In addition, the “time to clonic seizure (in words)” value in assay [1] (levetiracetam 500 mg/kg 60 min before PTZ 100 mg/kg s.c., FIG. 6) is recorded as “no significant effect”.
Turning to `Cc1cccc(C)c1OCC(C)N` (stereo not shown) [mexiletine, Mexiletine], the “effect” value in the assay on neuronal cortical cells (setting [6]) is listed as “no protection at all; also recorded: no significant effect”.
With `Cc1noc(NS(=O)(=O)c2ccc(N)cc2)c1C` [sulfisoxazole, Sulfisoxazole], the “effect” value in the assay on neuronal cortical cells (setting [8]) is “no significant effect”.
Take `Cc1cccc(Nc2ccncc2S(=O)(=O)NC(=O)NC(C)C)c1` [torasemide, Torasemide]: the results for the “effect” value with neuronal cortical cells (setting [5]) and with neuronal cortical cells (setting [8]) were “no significant results; also recorded: no statistically significant effect” and “no significant effect”, respectively. Also, in the assay with neuronal cortical cells, the “protection against glutamate toxicity, drug alone” value is 8%.
